Assays:
[1] = test system: H2O2 in HeLa cells; assay: H2O2 detection after genotoxic stress (BrdU/doxorubicin) in HeLa cells, fluorescence plate reader; format: cell-based, Human; conditions: for fold increase in fluorescence compared to control cells: BrdU (100 μM), about 48 hours
Experimental: (§1) The cells are incubated with QCy-BA (5 μM) for 30 minutes in dark, washed with PBS and analysed to detect QCy-BA dye fluorescence using Infinite M1000 Pro, Tecan, Austria). Wavelengths used for excitation and emission for QCy-BA dye is 400 nm/650 nm. In all ROS measurement assays are done using plate reader and after fluorescence measurements, cells are washed, trypsinized and counted to estimate fluorescence per cell recordings.
To measure ROS generated concomitant to the dose of the DNA damage, HeLa cells are treated with increasing doses (0 to 200 μM) of 5-bromo-2′-deoxyuridine (BrdU). BrdU is a thymidine analog, which gets directly incorporated into DNA and triggers DNA damage response. From previous studies in the art it is known that 48 hours of treatment with BrdU (100 μM) or another DNA damaging agent, doxorubicin at a concentration of 0.1 μM can lead to the induction of cellular senescence.

[2] = test system: H2O2 produced by EGF/Nox pathway in HeLa cells; assay: EGF produced H2O2 detection in HeLa cells by flow cytometry (FACS); format: cell-based, Human; conditions: EGF 500 ng/mL about 40 minutes, QCy-BA 5 μM 30 minutes
Experimental: To determine the EGF produced ROS in cells by QCy-BA. In a 12-well plate, […] HeLa cells are plated in each well and incubated for 24 hour. These cells are serum deprived for 1 h. Cells are incubated with EGF (500 ng/mL) for 40 minutes and further treated with NAC (8 mM) for 1 hour. Then cells are treated with QCy-BA (5 μM) for 30 minutes. After 30 minutes incubation of cells with QCy-BA, cells are washed with DPBS (Dulbecco's Phosphate Buffer Saline) to remove the excesses of QCy-BA. These cells are harvested after trypsinization. The samples are subjected to FACS.
Further, the study is extended to visualize the in situ H2O2 generation by a known signaling pathway in live cells. Well-known epidermal growth factor (EGF) binding to epidermal growth factor receptor (EGFR) signaling pathway is selected, which stimulates the production of H2O2 in cells by activating the NOX/PI3K pathways. In this experiment, live HeLa cells are incubated with the epidermal growth factor (EGF) (500 ng/mL) for about 40 minutes under physiological conditions (37° C., pH=7.4).

[3] = Detection limit of H2O2 in presence of QCy-BA (concentration-dependent fluorescence, microplate reader); conditions: QCy-BA 5 μM, PBS buffer, excitation 400 nm, 3σ/slope
Experimental: Concentration dependent studies are performed using microplate reader. In the well-plates, first QCy-BA (5 μM) in buffer solution is taken, then increasing concentration of H2O2 from 0 to 100 μM is added. Upon excitation at 400 nm, the emission at […] as function time after addition of H2O2 is collected. The fluorescence intensity at […] is plotted as a function of concentration of hydrogen peroxide and each experiment is done in triplicates.
Further, concentration-dependent fluorescence study on slicing of the phenyl boronic acid functionality of QCy-BA (5 μM) in response to sequential addition of H2O2 (5 to 100 μM) is performed. The fluorescence intensity of QCy-BA at 565 nm is decreased in response to added H2O2 in the concentration range of 5 to 50 μM and subsequently reached saturation at 100 μM. A linear relationship (R^2=0.9877) is observed with increasing concentration of H2O2 in the concentration range of 5-50 JAM. Based on 3a/slope the limit of detection (LOD) of H2O2, using the decrease in fluorescence of QCy-BA at 565 nm, is found to be 5.3 μM (FIG. 7). H2O2 is one of the many ROS present in the biological system and it is necessary to test the probe QCy-BA against all of them to assess the selectivity and specificity. […]

[4] = Fluorescence response of QCy-BA to various reactive oxygen species (selectivity); conditions: QCy-BA 5 μM; superoxide, hydroxyl radical, tert-butoxy radical, hypochlorite, 100 μM each
Experimental: Further, concentration-dependent fluorescence study on slicing of the phenyl boronic acid functionality of QCy-BA (5 μM) in response to sequential addition of H2O2 (5 to 100 μM) is performed. The fluorescence intensity of QCy-BA at 565 nm is decreased in response to added H2O2 in the concentration range of 5 to 50 μM and subsequently reached saturation at 100 μM. A linear relationship (R^2=0.9877) is observed with increasing concentration of H2O2 in the concentration range of 5-50 JAM. Based on 3a/slope the limit of detection (LOD) of H2O2, using the decrease in fluorescence of QCy-BA at 565 nm, is found to be 5.3 μM (FIG. 7). H2O2 is one of the many ROS present in the biological system and it is necessary to test the probe QCy-BA against all of them to assess the selectivity and specificity. Therefore, the response of QCy-BA towards H2O2 (100 μM) in the presence of other ROS (100 μM) is examined, including tertbutyl hydroperoxide (TBHP), superoxide (O2^−), hydroxyl radical (HO.), tert-butoxy radical (^tBuO.) and hypochlorite (OCl^−).

[5] = Time-dependent NMR analysis of H2O2 triggered slicing of phenyl boronic acid of QCy-BA; conditions: QCy-BA 2 mM in D2O, H2O2 10 mM, 1H NMR
Experimental: In a preliminary study, time-dependent NMR spectroscopy analysis of QCy-BA is carried out in the presence of H2O2 to assess the stimuli-responsive slicing of phenyl boronic acid functionality (FIG. 1(a)).
The chemical shifts of O—CH2, aromatic region of QCy-BA and appearance of possible new peaks for p-quinonemethide (sliced byproduct corresponding to phenyl boronic acid functionality) upon sequential addition of H2O2 is monitored. […] The peaks at 5.20 ppm and aromatic region 6.5-7.0 ppm correspond to the newly-formed exocyclic C—Hb protons of p-quinone-methide and QCy-DT moieties, respectively. After about 2 hours, a single peak at 5.20 ppm and prominent new peaks at 6.5-7.0 ppm are observed, indicating the complete conversion of QCy-BA to QCy-DT and p-quinonemethide (FIG. 1(b)). This study confirmed the H2O2 stimulus-triggered slicing of phenyl boronic acid functionality of QCy-BA to release QCy-DT, a DNA minor groove binding probe. It is observed that the color of the solution changes from yellow to brown after the addition of H2O2 to QCy-BA, a naked eye detection of the formation of p-quinone-methide and QCy-DT (FIG. 1(c)).

[6] = test system: H2O2 in HeLa cells; assay: Confocal fluorescence imaging of HeLa cells treated with exogenous H2O2; format: cell-based, Human; conditions: QCy-BA 5 μM 30 minutes, then H2O2 100 μM about 15 minutes
Experimental: An Immunofluorescence studies are carried out on HeLa cells to validate exogenous and endogenous detection of H2O2 by QCy-BA. The HeLa cells (10,000 cells) are grown on cover slips. These cells are treated with 5 μM concentration of QCy-BA for 30 minutes. The cells are washed with DPBS for several times to remove the excesses of QCy-BA. The cells are treated with H2O2 (100 μM) for 30 minutes. These samples are subjected to confocal microscopy for immunefluorescence images.
Remarkable selectivity of QCy-BA towards H2O2 and its detection through DNA-assisted switch-on NIR fluorescence led to evaluation of the uptake and application of the probe to detect H2O2 in cells. For this purpose, confocal fluorescence imaging of HeLa cells treated with H2O2 (exogenous) is carried out. First, the HeLa cells are incubated with QCy-BA (5 μM) for about 30 minutes and imaged under a confocal microscope. […] HeLa cells containing QCy-BA are then treated with H2O2 (100 μM) for about 15 minutes, after which the cells are again scanned under a confocal microscope.

[7] = test system: H2O2 in MRC5 cells; assay: H2O2 detection after genotoxic stress (BrdU/doxorubicin) in primary MRC5 cells, fluorescence plate reader; format: cell-based, human; conditions: MRC5, various doses of BrdU and doxorubicin 0.1 μM, 72 h; probe 5 μM
Experimental: as §1
Further, similar experiments are performed in primary MRC5 cells, which are human lung primary fibroblasts. To induce DNA damage, MRC5 cells are similarly treated with various doses of BrdU and doxorubicin (0.1 μM) for 72 h. […] Therefore, above results reveal that QCy-BA is a versatile probe to monitor the elevated levels of H2O2 in both primary and cancer cells in senescence state.

[8] = test system: H2O2 in HeLa cells; assay: Exogenous and endogenous detection of H2O2 in HeLa cells by flow cytometry (FACS); format: cell-based, Human; conditions: probe about 5 μM, about 30 minutes, absence of NAC
Experimental: In each well, […] cells are plated in 12-well tissue culture plates and incubated for 24 hours. These cells are serum deprived for 1 h. In addition, the serum deprived cells of 6-well are treated with N-acetyl-L-cysteine (NAC) (8 mM) solution and incubated for 1 hour and cells are treated with probe QCy-BA (5 μM) and incubated for 30 minutes. After 30 minutes incubation, the cells are washed with DPBS (Dulbecco's Phosphate buffer saline) to remove the excesses of QCy-BA. These cells are harvested after trypsinization. Exogenously, H2O2 (100 μM) is added to QCy-BA and NAC+QCy-BA treated cells and incubated for 15 min. These samples are subjected to FACS analysis.
NMR, photophysical study. […] Next. QCy-BA for probing cellular (physiologically generated) H2O2 levels in live cells is employed. HeLa cells are incubated with QCy-BA (about 5 μM) for about 30 minutes in the absence and presence of N-acetyl-L-cysteine (NAC), a well-known H2O2 scavenger. […] Thus, probe QCy-BA is also capable of detecting the cellular H2O2 levels in live cells.

[9] = Time-dependent fluorescence study of release kinetics of QCy-BA to QCy-DT in response to H2O2 in presence of Drew-AT; conditions: QCy-BA 2 μM, Drew-AT 2 μM
Experimental: The time-dependent fluorescence study is carried out to evaluate the release kinetics of QCy-BA (2 μM) to QCy-DT in response to H2O2 (100 μM) stimulus, in presence of Drew-AT duplex. The change in fluorescence intensities at […] and 650 nm corresponding to emission maxima (Emax) of QCy-BA and QCy-DT in presence of Drew-AT is monitored.
The calculation of kinetics parameter using pseudo-first-order conditions for conversion of QCy-BA (2 μM) to QCy-DT in the presence of H2O2 (1 mM) and Drew-AT (2 μM) gave the rate constant of kobs=1.0×10^−3 s^−1 (FIG. 10).

[10] = test system: HeLa cells; assay: Cytotoxicity on HeLa cells (MTT assay); format: cell-based, Human
Experimental: MTT [(3-(4,5-dimethylthiozol-2yl)-2,5-diphenyltetrazolium bromide] assay is carried out with probe QCy-BA on HeLa cells to determine the cytotoxicity effect. In a tissue cultured 96-well plate, 10,000 cells per well are plated and incubated for 24 h, for cells to attach. After completion of 24 h incubation, the attached and healthy cells are treated with various concentrations (25 μM, 12.5 μM, 6.25 μM, 3.125 μM and 0 μM) of probe QCy-BA and further incubated for 24 h. All the treatments are carried out in triplicates. The required concentrations of QCy-BA are made from stock solution in 0.2% DMEM. Stock solution of probe QCy-BA (1 mg/mL) is made in water. Four hours before stipulated time of experiment, MTT-solution (5 mg/mL of 20 μL) is added in each well and incubated to form formazan crystals. The culture medium is completely removed by 1 mL pipette and 200 μL of DMSO is added to dissolve formazan crystals. The purple colored formazan is estimated by determining absorbance at 590 nm with the help of spectrophotometer (Bio-RAD model 1680, Microplate reader). The results are shown in bar graphs (concentration of QCy-BA vs % cell viability).
In order to check the cytotoxicity of probe QCy-BA cell viability assay is performed in HeLa cells. Upon incubation with QCy-BA, more than 80% of the cells are viable even at 25 μM concentration after about 24 hours (FIG. 15).

Structure (SMILES) | fold change of fluorescence (summary for DCFDA) ([1]; BrdU 100 μM and doxorubicin 0.1 μM, 48 h) | fold increase in fluorescence compared to control cells [1] | fluorescence intensity in the PerCP region after EGF stimulation [2] | limit of detection (LOD) of H2O2, using the decrease in fluorescence of QCy-BA at 565 nm [3] | effect of other ROS on the probe response (fluorescence at 565 nm) [4] | time to complete conversion of QCy-BA to QCy-DT and p-quinonemethide [5] | fluorescence in HeLa cells after H2O2 [6] | fluorescence compared to control cells [7] | mean fluorescence intensity of PerCP compared to control cells [8] | time to saturation of emission intensity at 650 nm ([9]; H2O2 100 μM, excitation 564 nm) | rate constant kobs for conversion of QCy-BA to QCy-DT ([9]; pseudo-first-order, H2O2 1 mM, emission 650 nm) | viable cells ([10]; 25 μM, about 24 hours) | toxicity (in words) ([10]; standard working concentration about 5 μM, 24 hours)
CC(=O)Oc1cc2c(cc1Cl)C(c1ccccc1C(=O)O)c1cc(Cl)c(OC(C)=O)cc1O2 [DCFDA, 2′,7′-dichlorofluorescin diacetate] | 3-4 fold | 3 fold | – | – | – | – | – | – | – | – | – | – | –
C[n+]1c(/C=C/c2ccc(OCc3ccc(B(O)O)cc3)c(/C=C/c3sc4ccccc4[n+]3C)c2)sc2ccccc21.[I-].[I-] [QCy-BA, 4-((N, N-dimethyl, 2,4-bis((E)-2-(benzo[d]thiazol-2-ylinium)vinyl)phenoxy)methyl)phenylboronic acid] | – | ~10 fold | strong fluorescence intensity | 5.3 µM | very minimal or no effect | about 2 hours | strong fluorescence in the red channel with maximum localization in the cell nucleus | increase in fluorescence compared to control cells in a dose-dependent manner | increase in mean fluorescence intensity of PerCP | ≥ 4 h | 0.001 s⁻¹ | more than 80% | non-toxicity

Reference: US10544167B2, “Compounds as stimuli-responsive probes, methods and applications thereof” (JAWAHARLAL NEHRU CENTRE FOR ADVANCED SCIENTIFIC RESEARCH, priority 2015, dated 2020)
